Like-named read-outs stand apart in the source and are kept apart here.
Assays:
[1] = test system: recombinant (R)-2,3-butanediol dehydrogenase, HB101 (pSE-PAD1) cell extract; test: Substrate specificity of recombinant enzyme, oxidation reaction; assay type: biochemical, Pichia angusta; settings: for HB101 (pSE-PAD1) Relative activity: glycerol = 100%
Procedure: The quantification of polypeptide is carried out by a dye-binding method using a protein assay kit from BioRad.
(§1) The bacterial cells were collected by centrifugal separation and then suspended in 100 mM potassium phosphate buffer (pH 8.0) containing 0.02% 2-mercaptoethanol; the bacterial cells were lysed by the treatment with a closed sonic chamber device UCD-200TM (Cosmo Bio) for 4 minutes. The bacterial cell lysate was separated by centrifugation and the resulting supernatant was recovered as a bacterial cell extract.

[2] = test system: E. coli HB101 cell-free extract prepared in the absence of plasmid; assay type: biochemical
Procedure: as §1

[3] = molecular target: (R)-2,3-butanediol dehydrogenase derived from Saccharomyces cerevisiae (Saccharomyces cerevisiae, UniProt P39714); settings: Arch. Microbiol., 154:267-273, 1990; cited from earlier work
[4] = molecular target: glycerol dehydrogenase produced by Escherichia coli (Escherichia coli W-1485) (Escherichia coli, UniProt P0A9S5); settings: J. Biol. Chem., 259:2124-2129, 1984; cited from earlier work
[5] = test system: (R)-2,3-butanediol dehydrogenase; test: Substrate specificity of purified (R)-2,3-butanediol dehydrogenase (dehydrogenation activity); assay type: biochemical, Pichia angusta; settings: substrate 500 mM; glycerol dehydrogenation activity with NAD+ as coenzyme taken as 100; ND: not detectable
Procedure: The enzyme obtained in Example 1 was allowed to react with various reagents of 500 mM, and then the dehydrogenation activity was assayed.

[6] = test system: (R)-2,3-butanediol dehydrogenase; test: Behavior of (R)-2,3-butanediol dehydrogenase to reagents (residual glycerol dehydrogenase activity); assay type: biochemical, Pichia angusta; settings: for Inhibition of the enzyme by reagent (in words): treated at 30° C. for 10 minutes
Procedure: After treated with various reagents at 30° C. for 10 minutes, glycerol dehydrogenase activity was assayed.

[7] = test system: E. coli HB101 cell-free extract prepared in the absence of plasmid; test: Host only cell-free extract, reduction reaction; assay type: biochemical; settings: substrate 20 mM
Procedure: as §1

[8] = test system: recombinant (R)-2,3-butanediol dehydrogenase, HB101 (pSE-PAD1) cell extract; test: Substrate specificity of recombinant enzyme, reduction reaction; assay type: biochemical, Pichia angusta; settings: substrate 20 mM; for HB101 (pSE-PAD1) Relative activity: dihydroxyacetone = 100%
Procedure: as §1

[9] = test system: (R)-2,3-butanediol dehydrogenase; test: Stereoselectivity of purified (R)-2,3-butanediol dehydrogenase; assay type: biochemical, Pichia angusta
Procedure: The enzyme obtained in Example 1 was allowed to react with each of the two isomers 1,2-propanediol and 2,3-butanediol (500 mM each).

[10] = test system: (R)-2,3-butanediol dehydrogenase derived from Pichia angusta; test: Coenzyme usability; assay type: biochemical; settings: NADP+ in oxidation reaction, NADPH in reduction reaction
Source text: However, regardless of the usability of NADP^+ and NADPH, an enzyme having the above-mentioned physicochemical properties (1) to (3), preferably (1) to (6), and even more preferably (1) to (9) is included in the present invention.

[11] = oxidation reaction, substrate 100 mM
[12] = reagent 1 mM, 30° C. for 10 minutes, glycerol dehydrogenase activity
[13] = oxidation reaction, substrate 50 mM

glycerol dehydrogenase produced by Escherichia coli (Escherichia coli W-1485), sequence (P0A9S5 whole entry): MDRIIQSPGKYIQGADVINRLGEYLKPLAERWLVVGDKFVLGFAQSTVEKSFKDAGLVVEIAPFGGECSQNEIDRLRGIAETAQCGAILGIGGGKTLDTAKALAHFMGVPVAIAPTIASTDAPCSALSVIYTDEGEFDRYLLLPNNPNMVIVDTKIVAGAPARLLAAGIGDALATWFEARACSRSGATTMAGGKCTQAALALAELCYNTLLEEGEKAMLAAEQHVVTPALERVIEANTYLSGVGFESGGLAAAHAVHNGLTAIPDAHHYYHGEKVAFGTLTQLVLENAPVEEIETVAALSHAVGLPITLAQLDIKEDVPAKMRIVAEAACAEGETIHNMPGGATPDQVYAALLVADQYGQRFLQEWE
(R)-2,3-butanediol dehydrogenase derived from Saccharomyces cerevisiae, sequence (P39714 whole entry): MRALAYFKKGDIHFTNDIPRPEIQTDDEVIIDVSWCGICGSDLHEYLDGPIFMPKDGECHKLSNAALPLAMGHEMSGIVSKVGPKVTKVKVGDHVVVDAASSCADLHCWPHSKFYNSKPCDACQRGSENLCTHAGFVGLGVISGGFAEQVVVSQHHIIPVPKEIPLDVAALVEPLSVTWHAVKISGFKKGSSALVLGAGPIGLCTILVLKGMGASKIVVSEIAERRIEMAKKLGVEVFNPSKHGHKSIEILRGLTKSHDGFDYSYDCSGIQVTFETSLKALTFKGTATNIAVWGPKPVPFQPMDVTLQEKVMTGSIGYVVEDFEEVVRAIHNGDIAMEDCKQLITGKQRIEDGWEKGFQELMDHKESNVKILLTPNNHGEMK

## CCC(O)CO (racemic) [(RS)-1,2-butanediol]
[1]; substrate 100 mM
  HB101 (pSE-PAD1) activity: 0.200 U/mg
  HB101 (pSE-PAD1) Relative activity: 87.6%
[2]; [11]
  Host only activity: 0.002 U/mg

## CC(O)C(C)O (racemic) [DL-2,3-butanediol]
[3]
  dehydrogenase activity: about 20.3 U/mg protein
[4]
  Vmax: 21.2 U/mg protein

## CCC(O)CO (centres unmarked) [1,2-butanediol]
[5]
  Relative activity: 130%

## CC(O)CO (centres unmarked) [1,2-propanediol]
[5]
  Relative activity: 700%

## CC(O)CCO (centres unmarked) [1,3-butanediol]
[5]
  Relative activity: 58%

## c1ccc(-c2ccccn2)nc1 [2,2′-dipyridyl]
[6]; [12]
  Residual activity: 0%
[6]
  Inhibition of the enzyme by reagent (in words): markedly inhibited

## CC(O)C(C)O (centres unmarked) [2,3-butanediol]
[5]
  Relative activity: 3030%

## CC(=O)C(C)=O [2,3-butanedion]
[7]
  Host only activity: 0.018 U/mg
[8]
  HB101 (pSE-PAD1) activity: 1.906 U/mg
  HB101 (pSE-PAD1) Relative activity: 195%

## CCC(C)=O [2-butanone]
[7]
  Host only activity: 0.002 U/mg
[8]
  HB101 (pSE-PAD1) activity: 0.008 U/mg
  HB101 (pSE-PAD1) Relative activity: 0.8%

## CC(=O)C(C)O (centres unmarked) [3-hydroxy-2-butanone]
[1]; substrate 50 mM
  HB101 (pSE-PAD1) activity: 0.020 U/mg
  HB101 (pSE-PAD1) Relative activity: 8.8%
[7]
  Host only activity: 0.009 U/mg
[2]; [13]
  Host only activity: 0.006 U/mg
[8]
  HB101 (pSE-PAD1) activity: 0.696 U/mg
  HB101 (pSE-PAD1) Relative activity: 71.2%

## CC(=O)CCO [4-hydroxy-2-butanone]
[7]
  Host only activity: 0.006 U/mg
[8]
  HB101 (pSE-PAD1) activity: 0.011 U/mg
  HB101 (pSE-PAD1) Relative activity: 1.1%

## C[C@@H](O)[C@@H](C)O [(2R,3R)-2,3-butanediol]
[4]
  Vmax: 28.0 U/mg protein
[1]; substrate 50 mM
  HB101 (pSE-PAD1) activity: 1.414 U/mg
  HB101 (pSE-PAD1) Relative activity: 620%
[2]; [13]
  Host only activity: 0 U/mg

## C[C@H](O)[C@H](C)O [(2S,3S)-2,3-butanediol]
[1]; substrate 50 mM
  HB101 (pSE-PAD1) activity: 0.059 U/mg
  HB101 (pSE-PAD1) Relative activity: 26.1%
[2]; [13]
  Host only activity: 0 U/mg

## C[C@@H](O)CO [(R)-1,2-propanediol]
[9]
  Relative activity: 2000%
[1]; substrate 50 mM
  HB101 (pSE-PAD1) activity: 1.077 U/mg
  HB101 (pSE-PAD1) Relative activity: 473%
[2]; [13]
  Host only activity: 0 U/mg

## C[C@@H](O)CCO [(R)-1,3-butanediol]
[1]; substrate 50 mM
  HB101 (pSE-PAD1) activity: 0.259 U/mg
  HB101 (pSE-PAD1) Relative activity: 114%
[2]; [13]
  Host only activity: 0 U/mg

## C[C@@H](O)CO [(R)-2,3-propanediol]
[9]
  Relative activity: 6100%

## OC[C@@H](O)CCl [(R)-3-chloro-1,2-propanediol]
[1]; substrate 50 mM
  HB101 (pSE-PAD1) activity: 0.002 U/mg
  HB101 (pSE-PAD1) Relative activity: 0.9%
[2]; [13]
  Host only activity: 0 U/mg

## C[C@H](O)CO [(S)-1,2-propanediol]
[9]
  Relative activity: 400%
[1]; substrate 50 mM
  HB101 (pSE-PAD1) activity: 0.246 U/mg
  HB101 (pSE-PAD1) Relative activity: 108%
[2]; [13]
  Host only activity: 0 U/mg

## C[C@H](O)CCO [(S)-1,3-butanediol]
[1]; substrate 50 mM
  HB101 (pSE-PAD1) activity: 0.042 U/mg
  HB101 (pSE-PAD1) Relative activity: 18.3%
[2]; [13]
  Host only activity: 0 U/mg

## C[C@H](O)CO [(S)-2,3-propanediol]
[9]
  Relative activity: 160%

## OC[C@H](O)CCl [(S)-3-chloro-1,2-propanediol]
[1]; substrate 50 mM
  HB101 (pSE-PAD1) activity: 0.057 U/mg
  HB101 (pSE-PAD1) Relative activity: 24.8%
[2]; [13]
  Host only activity: 0.001 U/mg

## O=C(O)c1cc(SSc2ccc([N+](=O)[O-])c(C(=O)O)c2)ccc1[N+](=O)[O-] [DTNB, 5,5′-dithiobis (2-nitrobenzoic acid)]
[6]; [12]
  Residual activity: 59%

## O=C(O)CN(CCN(CC(=O)O)CC(=O)O)CC(=O)O [EDTA, ethylenediaminetetraacetic acid]
[6]; [12]
  Residual activity: 93%
[6]
  Inhibition of the enzyme by reagent (in words): not

## OCC(O)CO [Glycerol]
[9]; substrate 500 mM, activity to glycerol taken as 100
  Relative activity: 100%
[5]
  Relative activity: 100%
[1]; substrate 100 mM
  HB101 (pSE-PAD1) activity: 0.228 U/mg
  HB101 (pSE-PAD1) Relative activity: 100%
[2]; [11]
  Host only activity: 0 U/mg

## CC(=O)CO [Hydroxyacetone]
[7]
  Host only activity: 0 U/mg
[8]
  HB101 (pSE-PAD1) activity: 0.364 U/mg
  HB101 (pSE-PAD1) Relative activity: 37.2%

## CC(O)C(C)O (stereo not drawn) [Meso-2,3-butanediol]
[1]; substrate 50 mM
  HB101 (pSE-PAD1) activity: 1.163 U/mg
  HB101 (pSE-PAD1) Relative activity: 509%
[2]; [13]
  Host only activity: 0 U/mg

## NC(=O)C1=CN([C@@H]2O[C@H](COP(=O)(O)OP(=O)(O)OC[C@H]3O[C@@H](n4cnc5c(N)ncnc54)[C@H](OP(=O)(O)O)[C@@H]3O)[C@@H](O)[C@H]2O)C=CC1 [NADPH]
[10]
  Usability as a coenzyme (in words): substantially impossible

## NC(=O)c1ccc[n+]([C@@H]2O[C@H](COP(=O)([O-])OP(=O)(O)OC[C@H]3O[C@@H](n4cnc5c(N)ncnc54)[C@H](OP(=O)(O)O)[C@@H]3O)[C@@H](O)[C@H]2O)c1 [NADP^+]
[10]
  Usability as a coenzyme (in words): substantially impossible

## O=C(O)c1cc[c]([Hg][Cl])cc1 [PCMB, p-chloromercuribenzoic acid]
[6]; reagent 0.1 mM, 30° C. for 10 minutes, glycerol dehydrogenase activity
  Residual activity: 0%
[6]
  Inhibition of the enzyme by reagent (in words): markedly inhibited

## NNc1ccccc1 [Phenylhydrazine]
[6]; [12]
  Residual activity: 110%

## [Ba+2].[Cl-].[Cl-] [barium chloride]
[6]
  Residual activity: 112%

## [Ca+2].[Cl-].[Cl-] [calcium chloride]
[6]
  Residual activity: 105%

## [Cl][Co][Cl] [cobalt chloride]
[6]; [12]
  Residual activity: 102%

## [Cl][Cu][Cl] [copper chloride]
[6]; [12]
  Residual activity: 0%
[6]
  Inhibition of the enzyme by reagent (in words): markedly inhibited

## O=C(O)CI [iodoacetic acid]
[6]
  Residual activity: 91%

## [Cl][Fe][Cl] [iron (II) chloride]
[6]; [12]
  Residual activity: 163%

## [Cl][Fe]([Cl])[Cl] [iron (III) chloride]
[6]; [12]
  Residual activity: 0%
[6]
  Inhibition of the enzyme by reagent (in words): markedly inhibited

## [Cl-].[Li+] [lithium chloride]
[6]; [12]
  Residual activity: 101%

## [Cl-].[Cl-].[Mg+2] [magnesium chloride]
[6]
  Residual activity: 105%

## [Cl][Hg][Cl] [mercury chloride]
[6]; [12]
  Residual activity: 0%
[6]
  Inhibition of the enzyme by reagent (in words): markedly inhibited

## [Cl][Ni][Cl] [nickel chloride]
[6]
  Residual activity: 99%

## c1cnc2c(c1)ccc1cccnc12 [o-phenanthroline]
[6]; [12]
  Residual activity: 0%
[6]
  Inhibition of the enzyme by reagent (in words): markedly inhibited

## [Cl-].[Cl-].[Zn+2] [zinc chloride]
[6]
  Residual activity: 113%

## (R)-1-amino-2-propanol
[1]; substrate 50 mM
  HB101 (pSE-PAD1) activity: 0.051 U/mg
  HB101 (pSE-PAD1) Relative activity: 22.2%
[2]
  Host only activity: 0.007 U/mg

## (R)-2-butanol
[1]; substrate 50 mM
  HB101 (pSE-PAD1) activity: 0.022 U/mg
  HB101 (pSE-PAD1) Relative activity: 9.6%
[2]
  Host only activity: 0 U/mg

## (S)-1-amino-2-propanol
[1]; substrate 50 mM
  HB101 (pSE-PAD1) activity: 0.018 U/mg
  HB101 (pSE-PAD1) Relative activity: 8.0%
[2]
  Host only activity: 0.007 U/mg

## (S)-2-butanol
[1]; substrate 50 mM
  HB101 (pSE-PAD1) activity: 0.024 U/mg
  HB101 (pSE-PAD1) Relative activity: 10.7%
[2]
  Host only activity: 0 U/mg

## manganese chloride
[6]
  Residual activity: 105%

Reference: patent US6818426B2 (Daicel Chemical Industries, Ltd., priority 2000, dated 2004)
